# Data from patent US8058313B2, “Alpha, beta-unsaturated sulfones, sulfoxides, sulfonimides, sulfinimides, acylsulfonamides and acylsulfinamides and therapeutic uses thereof” (Temple University—Of The Commonwealth System of Higher …, priority 2004, dated 2011).
# Key:
# [1] = system: androgen receptor negative prostate (DU145) cell line; experiment: Effect on growth of human tumor cells in culture (viable cells, Trypan blue exclusion); format: cell-based; conditions: five concentrations (1-100 μM range), read from dose response curve
# Method: The effect of compounds according to Formula I on the growth of human tumor cells in culture was evaluated using the androgen receptor negative prostate (DU145) cell line. The cell culture was maintained at 37° C. in a humidified atmosphere of 5% CO2.
# Cells were treated with compounds according to Formula I at five different concentrations (1-100 μM range) for each compound. For comparison, the cells were treated with curcumin at the same concentrations. The dose response was established by determining the number of viable cells after 96 h of continuous treatment against each of the different test concentrations of each compound. The determination of viable cells was done by the Trypan blue exclusion method. Activity for each compound at each concentration is reported as a percentage of cells that remain viable.
# The GI50 values were determined by direct extrapolation from each dose response curve.
# [2] = target: recombinant FLT1 active protein (Homo sapiens, UniProt P17948); experiment: In vitro filter assay for FLT1 kinase activity; format: biochemical; conditions: 30 min preincubation at room temperature, kinase reaction 20 min at 30° C., 100 μM ATP, 250 μM IGF-1Rtide, triplicate
# recombinant FLT1 active protein, sequence (P17948 27-1338): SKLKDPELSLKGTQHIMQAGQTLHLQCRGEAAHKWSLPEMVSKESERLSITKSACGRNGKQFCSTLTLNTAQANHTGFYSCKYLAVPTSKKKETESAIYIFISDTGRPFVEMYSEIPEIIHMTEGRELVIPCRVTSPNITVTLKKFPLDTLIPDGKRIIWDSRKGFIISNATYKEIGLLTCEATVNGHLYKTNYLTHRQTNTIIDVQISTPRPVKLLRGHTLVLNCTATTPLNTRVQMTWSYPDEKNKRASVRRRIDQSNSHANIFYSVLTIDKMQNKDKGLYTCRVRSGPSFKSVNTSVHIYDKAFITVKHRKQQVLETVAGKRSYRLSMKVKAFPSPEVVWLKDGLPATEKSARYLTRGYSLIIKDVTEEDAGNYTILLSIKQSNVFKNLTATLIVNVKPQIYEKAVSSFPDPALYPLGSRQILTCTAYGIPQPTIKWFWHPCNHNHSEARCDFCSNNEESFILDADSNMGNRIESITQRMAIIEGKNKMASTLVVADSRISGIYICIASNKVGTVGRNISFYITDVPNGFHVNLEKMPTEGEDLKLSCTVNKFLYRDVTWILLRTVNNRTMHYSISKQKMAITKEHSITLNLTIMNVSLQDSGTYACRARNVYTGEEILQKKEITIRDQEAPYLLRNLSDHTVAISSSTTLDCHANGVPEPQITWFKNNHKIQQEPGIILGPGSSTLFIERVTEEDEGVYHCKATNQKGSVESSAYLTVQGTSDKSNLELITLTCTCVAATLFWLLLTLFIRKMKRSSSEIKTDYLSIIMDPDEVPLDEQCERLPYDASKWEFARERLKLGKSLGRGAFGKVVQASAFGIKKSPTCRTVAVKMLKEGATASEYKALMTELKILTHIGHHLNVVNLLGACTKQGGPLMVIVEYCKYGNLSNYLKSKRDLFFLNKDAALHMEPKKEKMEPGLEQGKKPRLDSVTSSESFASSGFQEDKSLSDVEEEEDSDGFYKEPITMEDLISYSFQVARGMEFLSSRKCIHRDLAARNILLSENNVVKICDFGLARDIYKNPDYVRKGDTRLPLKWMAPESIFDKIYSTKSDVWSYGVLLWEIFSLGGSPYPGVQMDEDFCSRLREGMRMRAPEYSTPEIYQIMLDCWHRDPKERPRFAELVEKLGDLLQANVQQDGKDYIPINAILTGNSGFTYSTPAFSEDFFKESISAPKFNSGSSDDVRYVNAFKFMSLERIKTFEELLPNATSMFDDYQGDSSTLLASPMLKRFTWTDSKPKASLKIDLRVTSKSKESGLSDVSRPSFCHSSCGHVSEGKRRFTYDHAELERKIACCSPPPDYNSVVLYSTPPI
# Method: The inhibition of FLT1 by compounds according to Formula I was assessed by employing an in vitro filter assay for FLT1.
# Compounds 1-15 were prepared as 10 mmol stock solutions in DMSO. Curcumin was also prepared as a 10 mmol stock solution for testing in the FLT1 assay. Five units of recombinant FLT1 active protein was incubated with different concentrations of each compound in a 15 μl reaction mixture (50 mM HEPES, 10 mM MgCl2, 1 mM EDTA, 2 mM Dithiothreitol 0.01% NP-40 pH 7.5) for 30 minutes at room temperature (25° C). Kinase reactions were performed for 20 minutes at 30° C. in a volume of 20 μl (15 μl enzyme+compound of Formula I, 2 μl 1 mM ATP (100 μM final concentration), 2 μl of γ 32^pATP (40 μci final concentration) and 250 μM of IGF-1Rtide. 10 μl aliquots of the kinase reaction were spotted onto the center of a filter (2 cm×2 cm P81 phosphocellulose paper square). After 30 seconds, the filters were washed with 0.75% phosphoric acid (3×5 minutes) and once with acetone (5 minutes). The wet filters were transferred into a scintillation vial containing scintillation cocktail ^32P (5 mL). Radioactivity was determined using a scintillation counter. Control analyses were performed with DMSO stock solutions containing no compound. Binding values were corrected for non-specific binding by performing duplicate assays in the absence of FLT1 enzyme and subtracting the non-specific binding values from the values obtained in the presence of FLT1. Counts per minute (CPM) of aliquots containing a compound of Formula I were compared with CPM of control samples. The kinase activity is expressed in percent of the maximal kinase activity. […] All assays were carried out in triplicate.
# [3] = Homo sapiens, DU-145, 96 h continuous treatment
Compound,GI50 ([1]; 96 h continuous treatment) [µM],IC50 [2] [µM],"GI50 [1, 3] [µM]"
"4-((1E)-2-(((E)-4-hydroxy-2,6-dimethoxystyrylsulfonyl)methylsulfonyl)vinyl)-3,5-dimethoxyphenol. [Example 15]",< 1,0.077,
"COc1cc(/C=C/S(=O)(=O)CS(=O)(=O)/C=C/c2ccc(O)c(OC)c2)ccc1O [Example 1, 4-((1E)-2-(((E)-4-Hydroxy-3-methoxystyrylsulfonyl)methylsulfonyl)vinyl)-2-methoxyphenol]",,3.89,< 10
"COc1cc(OC)c(/C=C/S(=O)(=O)CS(=O)(=O)/C=C/c2c(OC)cc(OC)cc2OC)c(OC)c1 [Example 2, bis((E)-2,4,6-Trimethoxystyrylsulfonyl)methane]",,0.281,75
"N#Cc1ccc(/C=C/S(=O)(=O)CS(=O)(=O)/C=C/c2ccc(C#N)cc2F)c(F)c1 [Example 3, 4-((1E)-2-(((E)-2-Fluoro-4-cyanostyrylsulfonyl)methylsulfonyl)vinyl)-3-fluorobenzonitrile]",,0.162,25 to 50
"O=S(=O)(/C=C/c1ccc(F)cc1F)CS(=O)(=O)/C=C/c1ccc(F)cc1F [Example 4, bis((E)-2,4-Difluorostyrylsulfonyl)methane]",,2.23,< 10
"COc1cccc(OC)c1/C=C/S(=O)(=O)CS(=O)(=O)/C=C/c1c(OC)cccc1OC [Example 5, bis((E)-2,6-Dimethoxystyrylsulfonyl)methane]",,12.8,25 to 50
"O=S(=O)(/C=C/c1ccc(Cl)cc1)CS(=O)(=O)/C=C/c1ccc(Cl)cc1 [Example 6, bis((E)-4-Chlorostyrylsulfonyl)methane]",,51,10 to 25
"O=S(=O)(/C=C/c1ccc(Br)cc1)CS(=O)(=O)/C=C/c1ccc(Br)cc1 [Example 7, bis((E)-4-Bromostyrylsulfonyl)methane]",,0.316,< 10
"O=S(=O)(/C=C/c1ccsc1)CS(=O)(=O)/C=C/c1ccsc1 [Example 8, bis((E)-2-(Thiophen-3-yl)vinylsulfonyl)methane]",,11.2,< 10
"O=S(=O)(/C=C/c1ccccc1)CS(=O)(=O)/C=C/c1ccccc1 [Example 9, bis((E)-Styrylsulfonyl)methane]",,> 100,10 to 25
"O=S(=O)(/C=C/c1ccc(I)cc1)CS(=O)(=O)/C=C/c1ccc(I)cc1 [Example 10, bis((E)-4-Iodostyrylsulfonyl)methane]",,> 10,
"O=S(=O)(/C=C/c1ccc(F)cc1)CS(=O)(=O)/C=C/c1ccc(F)cc1 [Example 11, bis((E)-4-Fluorostyrylsulfonyl)methane]",,> 100,< 10
"COc1cc(/C=C/S(=O)(=O)CS(=O)(=O)/C=C/c2cc(OC)c(OC)c(OC)c2)cc(OC)c1OC [Example 14, bis((E)-3,4,5-Trimethoxystyrylsulfonyl)methane]",,> 10,7.5
"COc1cc(/C=C/C(=O)CC(=O)/C=C/c2ccc(O)c(OC)c2)ccc1O [curcumin, reference compound]",,35,35
bis((E)-Perfluorostyrylsulfonyl)methane [Example 13],< 2.5,0.416,
